Where two headings read alike, the source gives them in different places.
Columns and labels:
TNFα = assay: IRAK4 Monocyte TNFα Cell Based Assay (LPS-stimulated, TR-FRET TNFα detection); set-up: species or system human; details: Homo sapiens, Monocyte, read-out: EC50 MONO TNF HTRF
How it was run: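 Monocytes (5,000 cells/well) treated with compound (0.1% DMSO) for 1 hour at 37° C, then stimulated with 50 pg/ml LPS for 4 hours. TNFα in medium quantified by TR-FRET two-antibody detection after overnight room-temperature incubation. Percent of control calculated against unstimulated (0%) and LPS-stimulated (100%) cells.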

IRAK4 enzyme = target: T1, IRAK4 enzyme (Homo sapiens, UniProt Q9NWZ3); assay: IRAK4 Biochemical Assay (TR-FRET, STK1 KinEASE); details: 500 μM ATP, Table 2 second part (compounds 33-343), read-out: IC50 IRAK4-HTBS
T1 construct: purchased Carna Biosciences, Chuo-ku, Kobe, Japan
T1 sequence (Q9NWZ3 1-460): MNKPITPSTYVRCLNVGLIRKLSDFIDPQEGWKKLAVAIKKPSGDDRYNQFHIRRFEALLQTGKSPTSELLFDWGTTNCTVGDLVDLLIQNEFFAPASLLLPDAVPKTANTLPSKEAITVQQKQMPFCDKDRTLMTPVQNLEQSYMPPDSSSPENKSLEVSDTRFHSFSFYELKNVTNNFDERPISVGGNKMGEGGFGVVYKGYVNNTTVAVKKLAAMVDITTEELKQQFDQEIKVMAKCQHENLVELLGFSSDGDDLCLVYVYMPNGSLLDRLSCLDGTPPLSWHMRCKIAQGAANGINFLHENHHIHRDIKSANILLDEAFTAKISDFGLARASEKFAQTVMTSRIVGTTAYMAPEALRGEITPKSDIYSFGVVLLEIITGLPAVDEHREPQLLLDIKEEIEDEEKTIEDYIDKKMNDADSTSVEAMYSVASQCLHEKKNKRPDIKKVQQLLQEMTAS
How it was run: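 Human IRAK4 (0.75 nM) preincubated 15 min with compound and 2 μM STK1 peptide, then reacted 120 min at room temperature with 500 μM ATP in HEPES pH 7.0 buffer with MgCl2 and DTT. EDTA stop with Cryptate anti-phosphopeptide antibody and tracer, 60 min; TR-FRET read as 665/615 nm ratio.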

[1] = human monocytes, LPS-stimulated, Table 2 second part (compounds 33-343)

SMILES	EC50 (TNFα; [1])	IC50 (IRAK4 enzyme)	EC50 (TNFα)
CC(=O)N[C@H]1C[C@H](c2nnc(-c3cnc(-c4ccc5cc(C#N)cnn45)cc3NC3COC3)s2)C1 [Example 202, N-((1r,3r)-3-(5-(6-(3-cyanopyrrolo[1,2-b]pyridazin-7-yl)-4-(oxctan-3-ylamino)pyridin-3-yl)-1,3,4-thiadiazol-2-yl)cyclobutyl)acetamide]	166 nM	1.23 nM	–
N#Cc1cnn2c(-c3cc(NC4COC4)c(-c4nnc([C@H]5CC[C@@H](NC(=O)C6CC6)CC5)s4)cn3)ccc2c1 [Example 203, N-((1s,4s)-4-(5-(6-(3-cyanopyrrolo[1,2-b]pyridazin-7-yl)-4-(oxetan-3-ylamino)pyridin-3-yl)-1,3,4-thiadiazol-2-yl)cyclohexyl)cyclopropanecarboxamide]	13.7 nM	0.83 nM	–
COC(=O)N[C@H]1CC[C@@H](c2nnc(-c3cnc(-c4ccc5cc(C#N)cnn45)cc3NC3COC3)s2)CC1 [Example 205, methyl ((1s,4s)-4-(5-(6-(3-cyanopyrrolo[1,2-b]pyridazin-7-yl)-4-(oxetan-3-ylamino)pyridin-3-yl)-1,3,4-thiadiazol-2-yl)cyclohexyl)carbamate]	20.1 nM	0.62 nM	–
CC(=O)N[C@@H]1C[C@H]2COC[C@@H](C1)N2c1nnc(-c2cnc(-c3ccc4cc(C#N)cnn34)cc2NC(C)C)s1 [Example 209, N-((1R,5S,7r)-9-(5-(6-(3-cyanopyrrolo[1,2-b]pyridazin-7-yl)-4-(isopropylamino)pyridin-3-yl)-1,3,4-thiadiazol-2-lyl)-3-oxa-9-azabicyclo[3.3.1]nonan-7-yl)acetamide]	–	0.89 nM	9.6 nM
CC1(Nc2cc(-c3ccc4cc(C#N)cnn34)ncc2-c2nnc(N3C[C@H]4CC[C@@H](C3)[C@@H]4NC(=O)C(C)(C)O)s2)COC1 [Example 210, N-((1R,5S,8s)-3-(5-(6-(3-cyanopyrrolo[1,2-b]pyridazin-7-yl)-4-((3-methyloxetan-3-yl)amino)pyridin-3-yl)-1,3,4-thiadiazol-2-yl)-3-azabicyclo[3.2.1]octan-8-yl)-2-hydroxy-2-methylpropanamide]	2.8 nM	0.84 nM	–
CC(C)Nc1cc(-c2ccc3cc(C#N)cnn23)ncc1-c1nnc(C(=O)N[C@H]2C[C@H](O)C2)s1 [Example 213, 5-(6-(3-cyanopyrrolo[1,2-b]pyridazin-7-yl)-4-(isopropylamino)pyridin-3-yl)-N-((1r,3r)-3-hydroxycyclobutyl)-1,3,4-thiadiazole-2-carboxamide]	1830 nM	0.31 nM	–
CC(C)Nc1cc(-c2ccc3cc(C#N)cnn23)ncc1-c1nnc(C(=O)N[C@H]2C[C@@H](O)C2)s1 [Example 215, 5-(6-(3-cyanopyrrolo[1,2-b]pyridazin-7-yl)-4-(isopropylamino)pyridin-3-yl)-N-((1s,3s)-3-hydroxycyclobutyl)-1,3,4-thiadiazole-2-carboxamide]	3100 nM	0.7 nM	–
CC(C)Nc1cc(-c2ccc3cc(C#N)cnn23)ncc1-c1nnc(C(=O)N2CCC[C@H]2CO)s1 [Example 217, (S)-7-(5-(5-(2-(hydroxymethyl)pyrrolidine-1-carbonyl)-1,3,4-thiadiazol-2-yl)-4-(isopropylamino)pyridin-2-yl)pyrrolo[1,2-b]pyridazine-3-carbonitrile]	11.1 nM	0.81 nM	–
CC(C)Nc1cc(-c2ccc3cc(C#N)cnn23)ncc1-c1nnc(C(=O)N[C@H]2C[C@@](C)(O)C2)s1 [Example 218, 5-(6-(3-cyanopyrrolo[1,2-b]pyridazin-7-yl)-4-(isopropylamino)pyridin-3-yl)-N-((1s,3s)-3-hydroxy-3-methylcyclobutyl)-1,3,4-thiadiazole-2-carboxamide]	858 nM	1.12 nM	–
CC(C)Nc1cc(-c2ccc3cc(C#N)cnn23)ncc1-c1nnc(C(=O)N[C@H]2C[C@](C)(O)C2)s1 [Example 219, 5-(6-(3-cyanopyrrolo[1,2-b]pyridazin-7-yl)-4-(isopropylamino)pyridin-3-yl)-N-((1r,3r)-3-hydroxy-3-methylcyclobutyl)-1,3,4-thiadiazole-2-carboxamide]	2070 nM	0.68 nM	–
CC(C)Nc1cc(-c2ccc3cc(C#N)cnn23)ncc1-c1nnc(C(=O)N[C@H]2CC[C@H](O)CC2)s1 [Example 220, 5-(6-(3-cyanopyrrolo[1,2-b]pyridazin-7-yl)-4-(isopropylamino)pyridin-3-yl)-N-((1r,4r)-4-hydroxycyclohexyl)-1,3,4-thiadiazole-2-carboxamide]	131 nM	1.39 nM	–
CC(C)Nc1cc(-c2ccc3cc(C#N)cnn23)ncc1-c1nnc(C(=O)N[C@H]2CC[C@@H](O)CC2)s1 [Example 224, 5-(6-(3-cyanopyrrolo[1,2-b]pyridazin-7-yl)-4-(isopropylamino)pyridin-3-yl)-N-((1s,4s)-4-hydroxycyclohexyl)-1,3,4-thiadiazole-2-carboxamide]	4770 nM	1.12 nM	–
CNc1cc(-c2ccc3cc(C#N)cnn23)ncc1-c1nnc([C@H]2C[C@H](NC(C)=O)C2)s1 [Example 282, N-((1r,3r)-3-(5-(6-(3-cyanopyrrolo[1,2-b]pyridazin-7-yl)-4-(methylamino)pyridin-3-yl)-1,3,4-thiadiazol-2-yl)cyclobutyl)acetamide]	22.4 nM	0.59 nM	–
CC(C)Nc1cc(-c2ccc3cc(C#N)cnn23)ncc1-c1nnc([C@H]2CC[C@H](NC(=O)C(C)(C)O)CC2)s1 [Example 315, N-((1r,4r)-4-(5-(6-(3-cyanopyrrolo[1,2-b]pyridazin-7-yl)-4-(isopropylamino)pyridin-3-yl)-1,3,4-thiadiazol-2-yl)cyclohexyl)-2-hydroxy-2-methylpropanamide]	10.9 nM	0.77 nM	–
CCOC(=O)Cc1nnc(-c2cnc(-c3ccc4cc(C#N)cnn34)cc2NC(C)C)s1 [Example 318, ethyl 2-(5-(6-(3-cyanopyrrolo[1,2-b]pyridazin-7-yl)-4-(isopropylamino)pyridin-3-yl)-1,3,4-thiadiazol-2-yl)acetate]	102 nM	0.94 nM	–

Reference: US12060351B2, “Thiadiazole IRAK4 inhibitors” (Gilead Sciences, Inc., priority 2018, dated 2024)
